± gives the standard deviation.
Columns and labels:
[1] = system: Toxoplasma gondii RH tachyzoites; assay: % growth inhibition vs DMSO (48 h luciferase); higher = more inhibition; conditions: 10 µM
[2] = system: Plasmodium falciparum 3D7; assay: EC50 growth inhibition (60 h, SYBR Green); conditions: stage: ring-stage start
[3] = system: Plasmodium falciparum 3D7; assay: % inhibition of schizont-to-ring transition vs DMSO; higher = more inhibition
In short: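 Tightly synchronised P. falciparum schizonts (about 40–42 hours post-invasion, 1% parasitemia, 2.5% hematocrit, AlbuMAX-supplemented RPMI) were exposed to compound at 1, 3 or 10 µM, with vehicle and positive controls. Cells were glutaraldehyde-fixed, Triton-permeabilised, stained with Hoechst 33342 and counted by flow cytometry (at least 100,000 events). Schizont-to-ring transition inhibition is new ring formation relative to vehicle controls, averaged over three experiments.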

[4] = target: Toxoplasma gondii RH tachyzoites; assay: EC50 growth inhibition (48 h luciferase)
[5] = system: Toxoplasma gondii RH tachyzoites; assay: plaque count per well; higher = less inhibition; extreme values may be limits of the assay; conditions: 10 µM; 8-10 days
Protocol: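 T. gondii RH tachyzoites expressing firefly luciferase were grown in HFF monolayers for 48 h with compound. % growth inhibition at 10 µM and EC50 (2-fold dilutions from 10 µM) were read by luminescence relative to 1% DMSO; EC50 listed as 10 (not determined, <80% inhibition) is left out. Plaque assays: 50 tachyzoites per well with 10 µM compound for 8-10 days, giving plaque count and area by crystal violet/ImageJ. Egress: median time to egress after 1 µM A23187 ionophore following 24 h of 10 µM compound (DMSO ~1.8 min; >10 = no egress within 10 min).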
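Wherever % growth inhibition vs DMSO (48 h luciferase) is given: tested in triplicate wells of 96-well plates on confluent HFF monolayers, with 1% DMSO wells as negative control in four replicates.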

| Structure (SMILES) | % growth inhibition [1] [%] | EC50 growth inhibition [2] [nM] | % inhibition of schizont-to-ring transition ([3]; 1 µM) [%] | % inhibition of schizont-to-ring transition ([3]; 3 µM) [%] | % inhibition of schizont-to-ring transition ([3]; 10 µM) [%] | EC50 growth inhibition [4] [nM] | plaque count per well [5] |
| --- | --- | --- | --- | --- | --- | --- | --- |
| CC(C)(C)C(=O)Nc1ccc(C(=O)Nc2cccc(-c3nc4ccccc4[nH]3)c2)cc1 | 88.4 ± 1.2 | 1820 | 22.8 | 32.4 | 56.2 | 2080 |  |
| CCN(CC)c1cc(C)c2cc(NC(=O)c3cccc(OC)c3)ccc2n1 | 98.73 ± 0.42 | 1300 | 25.4 | 31.7 | 56.8 | 1810 |  |
| Cc1ccnc(NC(c2cccc(OCc3ccccc3)c2)c2ccc3cccnc3c2O)c1 (centres undefined) | 98.51 ± 0.34 | 886 | 17.5 | 41.1 | 62.9 | 786 |  |
| O=C(Nc1ccc(Br)cc1)Nc1cccc(Cl)c1 | 96.13 ± 0.57 |  | 24.1 | 22.5 | 58.1 | 3770 |  |
| Oc1c(C(Nc2ccccn2)c2cccc(Oc3ccccc3)c2)ccc2cccnc12 (centres undefined) | 99.07 ± 0.26 | 852 | 27.1 | 43.9 | 64.8 | 1080 |  |
| CN(C)CCCNCc1ccc(-c2ccc(F)c(Cl)c2)o1 | 92.8 ± 3.3 | 601 | 12.5 | 38.8 | 63.5 | 1660 |  |
| COc1cc(C(=O)Nc2ccc(-c3nc4ccccc4[nH]3)cc2)cc(OC)c1OC | 91.42 ± 0.58 | 788 | < 0 | 9.26 | 43.1 | 4730 |  |
| CCOc1ccc2nc(C)cc(Nc3ccc(Br)cc3)c2c1 | 99.53 ± 0.2 | 180 | 28 | 45.8 | 44.9 | 4410 |  |
| O=C(Nc1ccc(F)c(Cl)c1)Nc1ccc(Cl)c(Cl)c1 | 100.1 ± 0.21 | 3980 | 36.5 | 55.4 | 77.4 | 346 |  |
| COc1cc(CNCCc2ccc(Cl)cc2)cc(OC)c1O | 51.4 ± 14 | 1780 | 3.17 | 4.67 | 38.3 | 5990 |  |
| CSc1ccccc1C(=O)Nc1nc(-c2ccccn2)cs1 | 99.44 ± 0.19 | 1710 | 23 | 26.9 | 40.1 | 849 |  |
| COc1ccc2nc(C)cc(Nc3ccc(Cl)cc3)c2c1 | 99.3 ± 1 | 477 | 24.7 | 39.5 | 56.8 | 556 |  |
| Cc1cc(Nc2cccc(F)c2)nc(NCc2ccccc2)n1 | 97.33 ± 0.9 | 149 | 43.1 | 60.2 | 70.5 | 879 |  |
| O=C(Nc1ccc(Cl)c(Cl)c1)Nc1ccc(Cl)c(Cl)c1 | 100.5 ± 0.22 | 7140 | 15.3 | 29.9 | 72.5 | 196 |  |
| Cc1ccc(Nc2nc(N)c3ccccc3n2)cc1Cl | 98.03 ± 0.51 | 427 | 23.3 | 60.8 | 67.5 | 1980 |  |
| COc1ccccc1N1C(=N)SC(=Cc2ccc(OCc3ccccc3F)cc2)C1=O | 93.42 ± 0.8 | 4920 | 14.8 | 30.1 | 52.5 | 978 |  |

| Structure (SMILES) | % growth inhibition [1] [%] | EC50 growth inhibition [2] [nM] | % inhibition of schizont-to-ring transition ([3]; 1 µM) [%] | % inhibition of schizont-to-ring transition ([3]; 3 µM) [%] | % inhibition of schizont-to-ring transition ([3]; 10 µM) [%] | EC50 growth inhibition [4] [nM] | plaque count per well [5] |
| --- | --- | --- | --- | --- | --- | --- | --- |
| O=C(Nc1ccccc1O)c1ccc(Oc2cccc(C(=O)Nc3ccccc3O)c2)cc1 | 99.35 ± 0.37 | 1840 | 0.57 | 30 | 46.7 | 1670 |  |
| CCCCC(O)(c1ccc(Cl)cc1)C(CN1CCOCC1)c1ccc(Cl)cc1 (centres undefined) | 99.1 ± 0.71 | 2010 | 21 | 18.3 | 40.5 | 5000 |  |
| OC1=C2C(=Nc3ccccc3SC2c2ccc(Br)cc2)c2ccccc21 (centres undefined) | 99.19 ± 0.75 | 588 | 19.5 | 33.4 | 45.5 | 803 |  |
| Cc1ccc(S(=O)(=O)c2c(COC(=O)c3cccc(C)c3)c(-c3ccccc3)nn2C)cc1 | 99.44 ± 0.48 |  | < 0 | 1.67 | 32.1 | 2060 |  |
| Cc1cccc(N2C(=O)C3C(C2=O)C2(c4ccccc4)C(=O)C3(c3ccccc3)C(c3ccc4c(c3)OCO4)=C2c2ccc3c(c2)OCO3)c1 (centres undefined) | < 0 | 1020 | < 0 | < 0 | 17.3 |  | 20 |
| CCCCc1c(C)nc2c(OC)cccc2c1O | 9.6 ± 15 | 2640 | 41.9 | 45.3 | 49.4 |  | 0 |
| CCn1c2c(c(=N)c3c1CCC3)CCCC2 | < 0 | 2640 | 43.8 | 47.9 | 56.4 |  | 34 |
| COc1ccc(-c2c(C)nn3c(N)c(C#N)cnc23)cc1OC | 7.54 ± 13 | 3710 | 71.1 | 74.9 | 76.1 |  | 22 |
| CC1CCN(Cc2ccc(NC(=O)c3cc4ccc5cccnc5c4[nH]3)cc2)CC1 | < 0 | 241 | 42.3 | 50 | 55.4 |  | 18 |
| O=C(Nc1ccc(Cl)cc1)N1CCN(c2ccc3nncn3n2)CC1 | < 0 | 6370 | 13.1 | 24.8 | 54.3 |  | 22 |
| O=C(CCc1ccco1)NC1CCN(CC2(c3ccc(Cl)cc3)CCC2)CC1 | < 0 | 509 | 18.8 | 41 | 67.5 |  | 23 |
| COc1ccc(-n2ccnc2SCC(=O)Nc2cc(C)ccc2C)c(OC)c1 | < 0 | 226 | 41.6 | 49.9 | 56.2 |  | 31 |
| CCOc1ccc(CN2CCN(CC(O)COc3ccc(OCC(O)CN4CCN(Cc5ccc(OCC)cc5)CC4)cc3)CC2)cc1 (centres undefined) | 4.15 ± 5.8 | 3120 | < 0 | 14.6 | 59.9 |  | 0 |
| Cc1c(C)n(Cc2ccc(F)cc2)c2ccc(C(=O)NCc3ccco3)cc12 | < 0 | 1770 | 36.3 | 40.3 | 53.4 |  | 21 |
| COc1ccc(OC)c(C2C3=C(CC(C)(C)CC3=O)N(c3ccc(Cl)c(Cl)c3)C3=C2C(=O)CC(C)(C)C3)c1 | < 0 | 7740 | 16.9 | 20.7 | 50.7 |  | 38 |

— the supplement of paper PMC5770543
